Measurements published in patent US20030109504A1, “Treatment of movement disorders with metabotropic glutamate receptors antagonist” (priority 2000, published 2003).
Entries after “also recorded” stand apart in the source; their conditions may differ.

What was measured:
[1] = test system: reserpine-treated rat model of Parkinson's disease; experiment: Locomotion (mobile counts) in reserpine-treated rat model of Parkinson's disease, antagonist combined with chloro-APB or quinpirole; assay type: in vivo; conditions: for total mobile counts: antagonist 1 mg/kg plus chloro-APB 0.2 mg/kg, versus vehicle plus chloro-APB (FIG. 1)
Description: The effect of metabotropic glutamate receptor antagonists on the anti-parkinsonian effects of chloro-APB (0.2 mg/kg) or quinpirole (0.1 mg/kg) was assessed in a reserpine-treated rat model of Parkinson's disease.
Male Sprague-Dawley rats were split into two groups A and B. Rats in both groups were rendered parkinsonian by subcutaneous administration of reserpine (3 mg/kg) for 18 hours.
After the 18 hours Group A were treated with either chloro-APB (0.2 mg/kg) or quinpirole (0.1 mg/kg) and then subdivided into groups A1, A2 and A3. These subgroups were additionally administered the following selective metabotropic glutamate receptor antagonists (1 mg/kg):
A1: (RS)-1-Aminoindan-1,5-dicarboxylic acid (AIDA—Group I metabotropic glutamate receptor antagonist);
A2: (2S)-alpha-Ethylglutamic acid (EGLU—Group II metabotropic glutamate receptor antagonist); and
A3: (RS)-alpha-Methylserine-O-phosphate (MSOP—Group III metabotropic glutamate receptor antagonist).
Group B were treated with chloro-APB (0.2 mg/kg) and vehicle for the antagonists only.
The locomotion of the rats in Groups A and B was measured over a one hour period using Benwick locomotor monitors. These locomotion monitors consist of a visually-shielded open-field arena, the perimeter of which is surrounded by a series of infra-red beams arranged at 5 cm intervals. PC-based software (Amlogger) assesses the number of beams broken. The number of beams broken as part of a locomotor movement (mobile counts) or the number of beam breaks while the animal is not locomoting (static counts) were measured. In addition, the system assesses the time for which animals are mobile or static.

[2] = test system: MPTP-lesioned marmoset model of Parkinson's disease; experiment: Mobility, locomotor activity and dyskinesia in MPTP-lesioned marmoset model of Parkinson's disease, combination with L-DOPA; assay type: in vivo, Marmosets (Callithrix jacchus); conditions: MPTP-lesioned marmosets; for L-DOPA-induced mobility and locomotor activity (reversal of parkinsonism): L-DOPA 8 mg/kg with or without SIB-1893 10 mg/kg (FIG. 3)
Description: The effect of the mGluR group I (selective for mGlu5) receptor antagonist SIB-1893 in combination with L-DOPA was assessed in the MPTP-lesioned marmoset model of Parkinson's disease. The ability of the traditional anti-parkinsonian agent L-DOPA to alleviate symptoms was compared with the combined therapy.
Marmosets (Callithrix jacchus) (bred in a closed colony at the University of Manchester) are rendered parkinsonian by subcutaneous injection of 2 mg kg^−1 MPTP for 5 consecutive days. The marmosets are allowed to recover for a minimum of 10 weeks until their parkinsonism becomes stable. The degree of activity and disability before and after MPTP treatment is assessed using a combination of scales as described below. Animals are then treated with L-DOPA for at least 3 weeks to prime them to elicit dyskinesia.
1) Activity—a quantitative assessment using computer-based activity monitors was obtained every 5 minutes for the duration of the experiment. p1 2) Parkinsonian disability—non-parametric measures based on the following scales:
Mobility score: 0=no movement, 1=movement of head on the floor of the cage, 2=movement of limbs, but no locomotion, on the floor of the cage, 3=movement of head or trunk on wall of cage or perch, 4=movement of limbs, but no locomotion, on wall of cage or perch, 5=walking around floor of cage or eating from hopper on floor, 6=hopping on floor of cage, 7=climbing onto wall of cage or perch, 8=climbing up and down the walls of the cage or along perch, 9=running, jumping, climbing between cage walls/perch/roof, uses limbs through a wide range of motion and activity.
Dyskinesia score: 0Absent, 1=Mild, fleeting, 2=Moderate, not interfering with normal activity, 3=Marked, at times interfering with normal activity, 4=Severe, continuous, replacing normal activity.
The behavioural tests were assessed every 30 minutes for 4 hours, by post hoc analysis of video-recordings by an observer blinded to the treatment.
The treatments were randomised such that on each day all six marmosets received one of the treatments. […]

[3] = reserpine-treated Sprague-Dawley rats, one hour

Compound	total mobile counts [1, 3]	L-DOPA-induced mobility and locomotor activity (reversal of parkinsonism) [2]	further results
NC1(C(=O)O)CCc2cc(C(=O)O)ccc21 (racemic) [AIDA, (RS)-1-Aminoindan-1,5-dicarboxylic acid]	greater than those treated with vehicle and chloro-APB only	–	efficacy in combination therapy (overall conclusion) ([1]; reserpine-treated rats, combination with chloro-APB or quinpirole): particularly effective
CC(N)(COP(=O)(O)O)C(=O)O (racemic) [MSOP, (RS)-alpha-Methylserine-O-phosphate]	greater than those treated with vehicle and chloro-APB only	–	–
CC[C@](N)(CCC(=O)O)C(=O)O [EGLU, (2S)-alpha-Ethylglutamic acid]	–	–	mobility (locomotion) ([1]; reserpine-treated Sprague-Dawley rats, antagonist 1 mg/kg plus quinpirole 0.1 mg/kg, one hour, versus vehicle plus quinpirole (FIG. 2)): greater mobility than those treated with vehicle and quinpirole only
N[C@@H](Cc1ccc(O)c(O)c1)C(=O)O [L-DOPA]	–	good anti-parkinsonian action	–
Cc1cccc(C=Cc2ccccc2)n1 [SIB-1893, 2-Methyl-6-(2-phenylethenyl)pyridine]	–	good anti-parkinsonian action; also recorded: as effective as L-DOPA alone in reversing parkinsonism	L-DOPA-induced dyskinesia ([2]; L-DOPA 8 mg/kg plus SIB-1893 10 mg/kg versus vehicle plus L-DOPA, p<0.05 (FIG. 4)): significantly less severe L-DOPA-induced dyskinesia
